Data: patent US12102685B2, “Immodulator peptides covalently modified with small molecules” (priority 2020, dated 2024)
Marks after values point to notes of the source that are not given here. Peptide text beside a SMILES is read from it.

Key:
[1] = Strength of binding to iron, plate assay (x2E b); details: 1 ug/well peptide complexed to Alexa-488-streptavidin; ferric iron
Experimental: Immodulator peptides were extended C-terminally by three amino acids, to include a valine residue that is highly conserved in the “thyroglobulin type 1 motif”. The reasoning behind this attempt is that a longer conserved sequence might lead to a tighter fold overall, which might in turn result in increased metal-binding avidity. • (b) Strength of binding to iron was evaluated by plate assay.
(§1) Experiments were conducted by the procedure described above. Ferric iron-charged NTA-coated 96-well plates were used as described. 1 ug/well immodulator peptide complexed to Alexa-488-labeled streptavidin in PBS buffer was added (60 min at room temperature). The plate was washed and counted in a standard fluorometer (excitation/emission: 485/525 nm). The results (fluorescence) show improved iron-binding by the three peptides extended C-terminally by the AVD, (dA)VD, and FVS tripeptides. **p<0.01 vs IM3 control IM3: 200±29; IM4: 45±37**; IM5: 130±77; IM3AVD: 434±29**; IM3dAVD: 418±28**; IM3FVS: 371±33** • (c) Competition assay. The same procedure was used as the preceding experiment, except that 375 ng/well labeled IM3 peptide was used, plus 10× of the indicated unlabeled peptide. ‘No competing peptide’ control value was set to 100. *p<0.05 vs “no peptide” control Competing Peptide/Fluorescence • None: 100±38; IM4: 125±26; IM3: 63±27*; IM5: 40±14*; IM3AVD: 10±28* • (d) Competition assay. The same procedure was used as the preceding experiment, except that labeled IM3AVD peptide was used. **p<0.01 vs “no competing peptide” control • None: 100±9; IM4: 144±44; IM3: 35±16**; IM5: 30±19**; IM3AVD: 9±19** • (e) The same procedure was used as the preceding experiment, except that each peptide was labeled with Alexa-488-labeled streptavidin in PBS buffer and used separately. Binding to IM3 was set to =100. *p<0.05, **p<0.01 vs IM3 control. (Labeled Peptide/Fluorescence) IM1: 1.8±0.4**; IM2: 3.0±1.8**; IM3: 100.0±16.8; IM4: 7.2±1.7*; IM5: 86.7±6.4; IM6: 85.9±14.9; IM3AVD:137.7±11.8*; IM3dAVD:147.4±22.9*; IM3FVS: 101.5±10.5.

[2] = Iron-binding competition assay with labeled IM3 (x2E c); details: 375 ng/well labeled IM3 plus 10x unlabeled peptide; no competing peptide = 100
Experimental: as §1

[3] = Iron-binding competition assay with labeled IM3AVD (x2E d); details: labeled IM3AVD plus 10x unlabeled peptide; no competing peptide = 100
Experimental: as §1

[4] = Iron binding of separately labeled peptides (x2E e); details: each peptide labeled separately; IM3 = 100; ferric iron
Experimental: as §1

A375 cells = test: A375 cell viability, CellTiterGlo (x10A); type: cell-based; details: 72 hours
Experimental: (§2) Immune modulation functions of immodulator peptides have great potential untility in the field of cancer. A375 cell line was obtained from American Type Culture Collection (ATCC). They were grown in a T-75 flask in DMEM Medium containing 10% fetal bovine serum and penicillin-streptomycin at 37° C. in a humidified, 5% CO2 incubator. Cells ([…], 2,000 cells/well) were plated in a 96-well plate and incubated overnight at 37° C. in a humidified, 5% CO2 incubator. Next day, […] of compounds were added (quadruplicate wells). After 72 hour incubation with the compound, cell viability was measured in a luminometer after the addition of […] CellTiterGlo reagent (Promega Inc, Madison, WI) as recommended by the manufacturer.
Experiment x10A. Anti-cancer activity of immodulator peptides on A375 cells. A 96-well plate was seeded with 2,000 A375 cells per well in DMEM medium containing 10% FBS and PenStrep. After 24 hrs at 37 deg C., compounds and peptides were added (each treatment done in quadruplicate). After a further 72 hours incubation, 100 uL/well of CTG assay reagent purchased from Promega Inc. (Madison, WI) was added. Plate was read after 10 minutes, as recommended by the manufacturer. Peptides were added at 2 uM. The results of this experiment are shown below, expressed as percent survival ofA375 cells.

[5] = Alexa488-SA-labelled IM1-IM6 binding to metal-charged NTA-coated plate (x2B d); details: no peptide background = 1.0
Experimental: NTA-metal-affinity fluorescence assay was performed using 96-well NTA-metal-coated plates readily available from commercial sources such as Qiagen (Germantown, MD). NTA was charged with ferrous or ferric iron, zinc, copper, calcium, vanadium, ruthenium, cobalt, titanium, manganese or other metals. 400 ng of FITC-labeled immodulator peptide (or biotinylated immodulator peptide complexed to Alexa-488-labeled streptavidin) in PBS buffer was added per plate. After incubation at room temperature for 60 minutes, excess peptide was washed off and peptide was detected by measuring fluorescence (excitation 490 nm, emmission 525 nm) in a fluorometer. • (a) Using FITC-labeled IM3 peptide (1 ug/well) in the fluorescent binding assay: • EDTA-treated control: 2,251±1,186 • Ferrous iron: 170,441±11,264 (p<0.001)* • Copper: 13,644±5566 (p<0.05)* • Calcium: 48,822±11,990 (p<0.01)* • *p values are relative to EDTA-treated control • (b) Competition binding assay to ferrous iron, calcium, copper and zinc-charged NTA-coated plates using FITC-labeled IM3 peptide (0.5 uM) and 8× (4 uM) unlabelled competitor peptides IM3N1, IM3N2 (*all comparisons to PBS control are p<0.01); # fluorescent value of binding to […] was set at 100.
Ferrous iron # (100±2.6*); Control (no metal): 6.4±3.1; Ferric iron: 94.1±6.6*; Calcium: 47.6±3.7*; Vanadium: 53.9±5.5*; Manganese: 54.4±11.2*; Cobalt: 25.4±2.3*; Copper: 58.4±6.4*; Zinc: 71.4±8.3*; Ruthenium: 67.8±8.3*; (d) Alexa488-SA-labelled immodulator peptide IM1, IM2, IM3, IM4, IM5, IM6 (400 ng/well) were bound to NTA-coated plate charged with the indicated metals: # background (no peptide) control set to 1.0;*p<0.05, **p<0.01 vs “no peptide”

[6] = molecular target: T1, AA111-228 DNA-binding domain of RXR-alpha (RXRa-DBD) (Homo sapiens, UniProt P19793); test: Binding to RXRa-DBD (x3A); details: 1 ug/well RXRa-DBD, 800 ng/well SA488-labelled peptide; background subtracted
T1 construct: purchased Abcam, Cambridge, MA
T1 sequence (P19793 111-228): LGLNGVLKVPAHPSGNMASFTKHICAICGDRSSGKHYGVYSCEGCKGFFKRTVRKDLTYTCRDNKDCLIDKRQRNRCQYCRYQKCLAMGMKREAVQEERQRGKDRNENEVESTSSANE
Experimental: Binding of immodulator peptides to AA111-228 DNA-binding domain of RXR-alpha (RXRa-DBD). 1 ug/well recombinant RXRa-DBD (Abcam, Cambridge, MA) was adsorbed to wells of a 96-well plate for 60 minutes at RT, then blocked with 200 uL 1% BSA in PBS buffer overnight. Plate was washed and 800 ng/well Streptavidin-Alexa 488 conjugate (SA488)-labelled IM peptide was added. The plate was incubated for 60 min at room temperature, washed and counted in a standard fluorometer (excitation/emission 485/525 nm). Background (buffer alone) was subtracted.

[7] = Binding to heparin-agarose spin column (x3D); details: 1 ug SA488-labelled peptide
Experimental: 1 ug Streptavidin-Alexa 488 conjugate (SA488)-labelled IM peptide in PBS buffer was loaded on a spin column packed with 0.2 ml bed volume heparin-agarose (G-Biosciences, St. Louis, MO). The column was centrifuged for 2 min at 2,000 G and the flow-through was collected. The column was then washed with 0.3 ml 1% BSA in PBS buffer and the column spin repeated. Flowthrough and wash were pooled and duplicate 20 uL aliquots counted in a standard fluorometer (excitation/emission 485/525 nm). Results are expressed as percentage of input counts that bound the heparin-agarose column, versus flowthrough. Percent counts bound to heparin-agarose resin are shown below. IM3, IM5 and IM6 peptides bind heparin-agarose in this assay.

[8] = Binding to Echelon PPI Arrays (x9B); design: key: 0=no binding; 1=low binding; 2=medium binding; 3=high binding; details: 100 pmol PPI spot, colorimetric readout
From the text: Binding of immodulator peptides to Echelon PPI Arrays. PPI arrays were purchased from Echelon Biosciences (Sal Lake City, UT) and used according to the manufacturer's recommendations. Colorimetric readout from each 100 pmol PPI spot in the array is expressed as 0=no binding, 1=low binding, 2=medium binding and 3=high binding. […] In addition, IM3 and IM5 show slight binding to PI(3,4,5)P3.

[9] = system: COL1 in HFF-1 dermal fibroblasts; test: Collagen-1 ELISA in HFF-1 dermal fibroblasts (x11A); type: cell-based; details: peptide 2 uM, 72 hour; control (buffer) = 100
Experimental: as §2, with “have” for “have great”, “cosmetics. HFF-1” for “cancer. A375”, “Cells” for “They”, “compound, supernatants were collected for Collagen-1 ELISA assay and” for “compound,”
Collagen stimulating activity of immodulator peptides in HFF-1 dermal fibroblasts. Peptides were added to cells at 2 uM. COL1 immunoreactivity was measured in the supernatants of cultured cells by ELISA using a rabbit monoclonal anti-COL1 primary antibody (Abcam, Cambridge, MA). Control (buffer) value of immunoreactivity was set to 100.

| SMILES | fluorescence (iron binding) [1] | fluorescence of labeled IM3 with competing peptide [2] | fluorescence of labeled IM3AVD with competing peptide [3] | fluorescence of labeled peptide [4] | percent survival of A375 cells (A375 cells; peptide 2 uM + Kin1400 4 uM (RIG-I agonist)) | percent survival of A375 cells (A375 cells; peptide 2 uM, Buffer) [%] | fluorescence ([5]; Calcium) | fluorescence ([5]; Copper) | fluorescence ([5]; Ferrous iron, 400 ng/well) | fluorescence ([5]; Zinc) | fluorescence [6] | Percent Flowthrough [7] [%] | Percent retained [7] [%] | binding to PI spot [8] | binding to PI(3,4,5)P3 spot [8] | binding to PI(4)P1 spot [8] | binding to PI(4,5)P2 spot [8] | COL1 immunoreactivity in supernatant [9] |
| --- | --- | --- | --- | --- | --- | --- | --- | --- | --- | --- | --- | --- | --- | --- | --- | --- | --- | --- |
| CC(C)[C@H](NC(=O)[C@H](C)NC(=O)[C@H](Cc1c[nH]c2ccccc12)NC(=O)[C@H](CS)NC(=O)[C@H](Cc1ccccc1)NC(=O)CNC(=O)[C@H](CCCNC(=N)N)NC(=O)[C@H](CCCCN)NC(=O)[C@H](CCCNC(=N)N)NC(=O)CNC(=O)[C@H](CCCCN)NC(=O)[C@H](CO)NC(=O)[C@@H]1CCCN1C(=O)[C@H](CCCNC(=N)N)NC(=O)[C@H](CS)NC(=O)[C@H](CCC(N)=O)NC(=O)[C@H](CCCCN)NC(=O)[C@H](CCCCN)NC(=O)[C@H](CCCCN)NC(=O)[C@H](Cc1ccc(O)cc1)NC(=O)[C@H](Cc1ccccc1)NC(=O)CNC(=O)[C@H](CCCCN)NC(=O)[C@@H](N)CCCCN)C(=O)N[C@@H](CC(=O)O)C(=O)O [IM3AVD] (H-KKGFYKKKQCRPSKGRKRGFCWAVD-OH; N-terminus and C-terminus assumed) | 434±29 | 10±28 | 9±19 | 137.7±11.8 | 12.5** percent | 96.0 |  |  |  |  |  |  |  |  |  |  |  |  |
| N=C(N)NCCC[C@H](NC(=O)[C@H](CCCNC(=N)N)NC(=O)[C@H](CCC(N)=O)NC(=O)CNC(=O)[C@H](CCC(N)=O)NC(=O)[C@H](CO)NC(=O)[C@H](CO)NC(=O)[C@H](CCCNC(=N)N)NC(=O)[C@H](CS)NC(=O)[C@H](CCC(N)=O)NC(=O)[C@H](CCCNC(=N)N)NC(=O)[C@H](CCCCN)NC(=O)[C@H](CCCNC(=N)N)NC(=O)[C@H](Cc1ccc(O)cc1)NC(=O)[C@H](Cc1ccccc1)NC(=O)CNC(=O)[C@H](CCCNC(=N)N)NC(=O)[C@@H](N)Cc1c[nH]cn1)C(=O)NCC(=O)N1CCC[C@H]1C(=O)N[C@@H](CS)C(=O)N[C@@H](Cc1c[nH]c2ccccc12)C(=O)O [IM6] (H-HRGFYRKRQCRSSQGQRRGPCW-OH; N-terminus and C-terminus assumed) |  |  |  | 85.9±14.9 |  |  | 15.1 ± 1.9** | 2.4 ± 2.4** | 20.6 ± 0.8** | 8.4 ± 0.4** | 587±192 | 2.0 | 98.0 | 0 | 0 | 0 | 1 | 112 |
